Assay results reported in patent publication EP4667466A1, “PROTAC DEGRADERS OF MLLT1 AND/OR MLLT3” (priority 2024, dated 2025).

Target: T1, MLLT1 (Homo sapiens, UniProt Q03111)
T1 construct: endogenous in cells; host or cells: MV4-11 (ATCC CRL-9591)
T1 sequence (Q03111 1-559): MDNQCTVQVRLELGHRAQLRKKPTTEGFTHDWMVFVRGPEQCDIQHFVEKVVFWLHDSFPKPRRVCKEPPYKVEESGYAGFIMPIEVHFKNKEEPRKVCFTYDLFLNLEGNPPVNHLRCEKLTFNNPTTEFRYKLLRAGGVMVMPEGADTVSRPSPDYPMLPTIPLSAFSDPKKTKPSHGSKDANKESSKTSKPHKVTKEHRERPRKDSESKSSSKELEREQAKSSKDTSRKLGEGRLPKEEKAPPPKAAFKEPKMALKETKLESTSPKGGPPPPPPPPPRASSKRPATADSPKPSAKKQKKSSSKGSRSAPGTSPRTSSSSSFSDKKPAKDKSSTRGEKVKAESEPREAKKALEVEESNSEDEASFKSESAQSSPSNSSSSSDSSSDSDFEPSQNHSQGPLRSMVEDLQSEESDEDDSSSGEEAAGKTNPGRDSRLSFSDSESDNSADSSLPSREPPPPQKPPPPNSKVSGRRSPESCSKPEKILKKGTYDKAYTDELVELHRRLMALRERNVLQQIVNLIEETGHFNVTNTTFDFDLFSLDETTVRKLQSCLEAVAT
Assay: MLLT1 degradation assay (JESS automated chemiluminescent detection) in MV4-11 cells
Format: cell-based
Settings: 24h, with respect to DMSO control
Protocol: MLLT1 degradation efficacy of compounds was tested in an automated chemiluminescent detection system (JESS, Cat# 004-650). MV4-11 (#CRL-9591, ATCC) cells were seeded at a density of 1.2 million cells/well in a non-treated 6-well cell culture plate in 2.4 mL of complete medium (IMDM + 10% FBS + 1X Penicillin-Streptomycin). 10 mM DMSO stocks were prepared, and cells were treated with three concentrations of test compounds viz. 1000, 100 and 10 nM at a final DMSO concentration of 0.1% and incubated for 24h at 37°C, 5% CO2. Post incubation, cells were centrifuged, washed with HBSS and lysed in 70 uL of RIPA buffer supplemented with Protease inhibitors (sc-24948; Santa Cruz). Subsequently, protein estimation was done using BCA protein assay kit (23225; Pierce). 4 ug protein lysate (4 uL of 1ug/uL lysate) was loaded into each well of the JESS cartridge (SM-WO01; Bio-techne) and the JESS run was performed using 1:900 dilution of anti-human MLLT1 antibody (14893; Cell signaling technology) and 1:1200 dilution of anti-human GAPDH antibody (2118; Cell signaling technology) with anti-rabbit secondary detection module (DM-001; Bio-Techne). Post run, data were analysed using "Compass for SW" software for chemiluminescent detection. The peak area for each band was used for the calculation of MLLT1 degradation with respect to DMSO control. Data is shown as "MLLT1 % degradation". Category A: A ≥ 75% degradation Category B: 50% ≤ B < 75% degradation Category C: 25% ≤ C < 50% degradation Category D: D < 25% degradation Table 1

Row | inhibition at 0.1 µM | inhibition at 1 µM | inhibition at 0.01 µM | SMILES
1 | 50 to 75% | ≥ 75% | 50 to 75% | Cc1nn(CCCCCC#Cc2cccc3c2C(=O)N(C2CCC(=O)NC2=O)C3=O)c2cc(C(=O)Nc3cc4[nH]c([C@H]5CCCN5C)cc4cn3)ccc12 (stereo partly drawn) [Example 33, 1-(7-(2-(2,6-dioxopiperidin-3-yl)-1,3-dioxoisoindolin-4-yl)hept-6-yn-1-yl)-3-methyl-N-(2-((R)-1-methylpyrrolidin-2-yl)-1H-pyrrolo[3,2-c]pyridin-6-yl)-1H-indazole-6-carboxamide]
2 | 50 to 75% | ≥ 75% | < 25% | Cc1nn(CCCCCC#Cc2cccc(C(=O)NC3CCC(=O)NC3=O)c2F)c2cc(C(=O)Nc3cc4[nH]c([C@H]5CCCN5C)cc4cn3)ccc12 (stereo partly drawn) [Example 34, 1-(7-(3-((2,6-dioxopiperidin-3-yl)carbamoyl)-2-fluorophenyl)hept-6-yn-1-yl)-3-methyl-N-(2-((R)-1-methylpyrrolidin-2-yl)-1H-pyrrolo[3,2-c]pyridin-6-yl)-1H-indazole-6-carboxamide]
3 | < 25% | 50 to 75% | 25 to 50% | Cc1c(C#CCCCCCn2nc(C)c3ccc(C(=O)Nc4cc5[nH]c([C@H]6CCCN6C)cc5cn4)cc32)cccc1C(=O)NC1CCC(=O)NC1=O (stereo partly drawn) [Example 35, 1-(7-(3-((2,6-dioxopiperidin-3-yl)carbamoyl)-2-methylphenyl)hept-6-yn-1-yl)-3-methyl-N-(2-((R)-1-methylpyrrolidin-2-yl)-1H-pyrrolo[3,2-c]pyridin-6-yl)-1H-indazole-6-carboxamide]
4 | 25 to 50% | 50 to 75% | < 25% | Cc1nn(CCCCCCCC#Cc2ccc(C(=O)N[C@H]3CCC(=O)NC3=O)nc2)c2cc(C(=O)Nc3cc4[nH]c([C@H]5CCCN5C)cc4cn3)ccc12 [Example 41, 1-(9-(6-(((S)-2,6-dioxopiperidin-3-yl)carbamoyl)pyridin-3-yl)non-8-yn-1-yl)-3-methyl-N-(2-((R)-1-methylpyrrolidin-2-yl)-1H-pyrrolo [3,2-c]pyridin-6-yl)-1H-indazole-6-carboxamide]
5 | ≥ 75% | ≥ 75% | 50 to 75% | Cc1nn(CCCCCCCC#Cc2cccc(C(=O)N[C@H]3CCC(=O)NC3=O)n2)c2cc(C(=O)Nc3cc4[nH]c([C@H]5CCCN5C)cc4cn3)ccc12 [Example 42, 1-(9-(6-(((S)-2,6-dioxopiperidin-3-yl)carbamoyl)pyridin-2-yl)non-8-yn-1-yl)-3-methyl-N-(2-((R)-1-methylpyrrolidin-2-yl)-1H-pyrrolo [3,2-c]pyridin-6-yl)-1H-indazole-6-carboxamide]
6 | 50 to 75% | ≥ 75% | 25 to 50% | Cc1nn(CCCCCCCC#Cc2ccnc(C(=O)N[C@H]3CCC(=O)NC3=O)c2)c2cc(C(=O)Nc3cc4[nH]c([C@H]5CCCN5C)cc4cn3)ccc12 [Example 43, 1-(9-(2-(((S)-2,6-dioxopiperidin-3-yl)carbamoyl)pyridin-4-yl)non-8-yn-1-yl)-3-methyl-N-(2-((R)-1-methylpyrrolidin-2-yl)-1H-pyrrolo [3,2-c]pyridin-6-yl)-1H-indazole-6-carboxamide]
7 | ≥ 75% | ≥ 75% | ≥ 75% | Cc1nn(CCCCCOCC#Cc2cccc3c2CN(C2CCC(=O)NC2=O)C3=O)c2cc(C(=O)Nc3cc4[nH]c([C@H]5CCCN5C)cc4cn3)ccc12 (stereo partly drawn) [Example 49, 1-(5-((3-(2-(2,6-dioxopiperidin-3-yl)-1-oxoisoindolin-4-yl)prop-2-yn-1-yl)oxy)pentyl)-3-methyl-N-(2-((R)-1-methylpyrrolidin-2-yl)-1H-pyrrolo[3,2-c]pyridin-6-yl)-1H-indazole-6-carboxamide]
8 | ≥ 75% | ≥ 75% | ≥ 75% | Cc1nn(CCOCCCCC#Cc2cccc3c2CN(C2CCC(=O)NC2=O)C3=O)c2cc(C(=O)Nc3cc4[nH]c([C@H]5CCCN5C)cc4cn3)ccc12 (some centres unmarked) [Example 50]

More lines, now with the values behind:

Row | SMILES | inhibition at 0.1 µM | inhibition at 1 µM | inhibition at 0.01 µM
9 | Cc1nn(CCCC2CCN(c3ccc(C(=O)NC4CCC(=O)NC4=O)cc3F)CC2)c2cc(C(=O)Nc3cc4[nH]c([C@H]5CCCN5C)cc4cn3)ccc12 (stereo partly drawn) [Example 28, 1-(3-(1-(4-((2,6-dioxopiperidin-3-yl)carbamoyl)-2-fluorophenyl)piperidin-4-yl)propyl)-3-methyl-N-(2-((R)-1-methylpyrrolidin-2-yl)-1H-pyrrolo[3,2-c]pyridin-6-yl)-1H-indazole-6-carboxamide] | 25 to 50% | 25 to 50% | –
10 | Cc1nn(CCCCCC2CCN(c3cccc4c3C(=O)N(C3CCC(=O)NC3=O)C4=O)CC2)c2cc(C(=O)Nc3cc4[nH]c([C@H]5CCCN5C)cc4cn3)ccc12 (stereo partly drawn) [Example 29, 1-(5-(1-(2-(2,6-dioxopiperidin-3-yl)-1,3-dioxoisoindolin-4-yl)piperidin-4-yl)pentyl)-3-methyl-N-(2-((R)-1-methylpyrrolidin-2-yl)-1H-pyrrolo[3,2-c]pyridin-6-yl)-1H-indazole-6-carboxamide] | ≥ 75% | ≥ 75% | 50 to 75%
11 | Cc1nn(CCCOCC#Cc2cccc3c2CN(C2CCC(=O)NC2=O)C3=O)c2cc(C(=O)Nc3cc4[nH]c([C@H]5CCCN5C)cc4cn3)ccc12 (stereo partly drawn) [Example 31, 1-(3-((3-(2-(2,6-dioxopiperidin-3-yl)-1-oxoisoindolin-4-yl)prop-2-yn-1-yl)oxy)propyl)-3-methyl-N-(2-((R)-1-methylpyrrolidin-2-yl)-1H-pyrrolo[3,2-c]pyridin-6-yl)-1H-indazole-6-carboxamide] | 50 to 75% | ≥ 75% | 25 to 50%
12 | CN1CCC[C@@H]1c1cc2cnc(NC(=O)c3ccc4c(cnn4CCCCCCCCNc4cccc5c4C(=O)N(C4CCC(=O)NC4=O)C5=O)c3)cc2[nH]1 (stereo partly drawn) [Example 36, 1-(8-((2-(2,6-dioxopiperidin-3-yl)-1,3-dioxoisoindolin-4-yl)amino)octyl)-N-(2-((R)-1-methylpyrrolidin-2-yl)-1H-pyrrolo[3,2-c]pyridin-6-yl)-1H-indazole-5-carboxamide] | ≥ 75% | ≥ 75% | ≥ 75%
13 | CN1CCC[C@@H]1c1cc2cnc(NC(=O)c3ccc4c(cnn4CCCCCCCC#Cc4cccc5c4CN(C4CCC(=O)NC4=O)C5=O)c3)cc2[nH]1 (stereo partly drawn) [Example 38, 1-(9-(2-(2,6-dioxopiperidin-3-yl)-1-oxoisoindolin-4-yl)non-8-yn-1-yl)-N-(2-((R)-1-methylpyrrolidin-2-yl)-1H-pyrrolo[3,2-c]pyridin-6-yl)-1H-indazole-5-carboxamide] | ≥ 75% | 50 to 75% | 50 to 75%
14 | Cc1nn(CCCCCCCC#Cc2ccc3c(c2)n(C)c(=O)n3C2CCC(=O)NC2=O)c2cc(C(=O)Nc3cc4[nH]c([C@H]5CCCN5C)cc4cn3)ccc12 (stereo partly drawn) [Example 39, 1-(9-(1-(2,6-dioxopiperidin-3-yl)-3-methyl-2-oxo-2,3-dihydro-1H benzo[d]imidazol-5-yl)non-8-yn-1-yl)-3-methyl-N-(2-((R)-1-methylpyrrolidin-2-yl)-1H-pyrrolo[3,2-c]pyridin-6-yl)-1H-indazole-6-carboxamide] | ≥ 75% | ≥ 75% | ≥ 75%
15 | Cc1nn(CCCCCN2CCN(c3cccc4c3C(=O)N(C3CCC(=O)NC3=O)C4=O)CC2)c2cc(C(=O)Nc3cc4[nH]c([C@H]5CCCN5C)cc4cn3)ccc12 (stereo partly drawn) [Example 47, 1-(5-(4-(2-(2,6-dioxopiperidin-3-yl)-1,3-dioxoisoindolin-4-yl)piperazin-1-yl)pentyl)-3-methyl-N-(2-((R)-1-methylpyrrolidin-2-yl)-1H-pyrrolo[3,2-c]pyridin-6-yl)-1H-indazole-6-carboxamide] | < 25% | 50 to 75% | < 25%
16 | CCN1CCC[C@@H]1c1cc2cnc(NC(=O)c3ccc4c(C)nn(CCCCCCCC#Cc5cccc6c5CN(C5CCC(=O)NC5=O)C6=O)c4c3)cc2[nH]1 (stereo partly drawn) [Example 48, 1-(9-(2-(2,6-dioxopiperidin-3-yl)-1-oxoisoindolin-4-yl)non-8-yn-1-yl)-N-(2-((R)-1-ethylpyrrolidin-2-yl)-1H-pyrrolo[3,2-c]pyridin-6-yl)-3-methyl-1H-indazole-6-carboxamide] | 50 to 75% | ≥ 75% | 25 to 50%
